Results published in ChEMBL document CHEMBL1201861, “Genomics of Drug Sensitity in Cancer screening data, Wellcome Trust Sanger Institute”.

Assays:
Assay type in all cases: functional, cell-based
[1] = system: TGW; assay: cells; conditions: Homo sapiens;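 note: growth inhibition of human TGW cells, read out with a cell viability assay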
Description: SANGER: Inhibition of human TGW cell growth in a cell viability assay.

[2] = system: IST-SL2; assay: cells; conditions: Homo sapiens;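 note: growth inhibition of human IST-SL2 cells, read out by a cell viability assay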
Description: SANGER: Inhibition of human IST-SL2 cell growth in a cell viability assay.

[3] = system: OPM-2; assay: cells; conditions: Homo sapiens;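 note: growth of OPM-2 cells measured with a viability assay, IC50 for suppression of proliferation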
Description: SANGER: Inhibition of human OPM-2 cell growth in a cell viability assay.

[4] = system: THP-1; assay: cells; conditions: Homo sapiens;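 note: growth inhibition of THP-1 cells, read out via a cell viability assay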
Description: SANGER: Inhibition of human THP-1 cell growth in a cell viability assay.

[5] = system: NCI-H2141; assay: cells; conditions: Homo sapiens;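 note: growth inhibition of human NCI-H2141 cells, read out with a cell viability assay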
Description: SANGER: Inhibition of human NCI-H2141 cell growth in a cell viability assay.

[6] = system: NB7; assay: cells; conditions: Homo sapiens;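 note: growth inhibition of NB7 cells, read out with a cell viability assay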
Description: SANGER: Inhibition of human NB7 cell growth in a cell viability assay.

[7] = system: NCI-H322M; assay: cells; conditions: Homo sapiens;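 note: cell viability assay measuring inhibition of growth of human NCI-H322M cells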
Description: SANGER: Inhibition of human NCI-H322M cell growth in a cell viability assay.

[8] = system: CAL-148; assay: cells; conditions: Homo sapiens
Description: SANGER: Inhibition of human CAL-148 cell growth in a cell viability assay.

[9] = system: COR-L279; assay: SANGER: Inhibition of human COR-L279 cell growth in a cell viability assay.
[10] = system: D-336MG; assay: cells; conditions: Homo sapiens
Description: SANGER: Inhibition of human D-336MG cell growth in a cell viability assay.

[11] = system: NB1; assay: cells; conditions: Homo sapiens;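 note: reduction of NB1 cell proliferation, read out with a viability assay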
Description: SANGER: Inhibition of human NB1 cell growth in a cell viability assay.

[12] = system: Raji; assay: cells; conditions: Homo sapiens;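 note: cell viability assay measuring inhibition of Raji cell growth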
Description: SANGER: Inhibition of human Raji cell growth in a cell viability assay.

[13] = system: TUR; assay: cells; conditions: Homo sapiens;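 note: growth inhibition of human TUR cells, read out with a cell viability assay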
Description: SANGER: Inhibition of human TUR cell growth in a cell viability assay.

[14] = system: NCI-H1417; assay: cells; conditions: Homo sapiens;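 note: human NCI-H1417 cells, growth inhibition determined with a cell viability readout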
Description: SANGER: Inhibition of human NCI-H1417 cell growth in a cell viability assay.

[15] = system: LC-1F; assay: cells; conditions: Homo sapiens;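 note: growth inhibition of human LC-1F cells, read out with a cell viability assay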
Description: SANGER: Inhibition of human LC-1F cell growth in a cell viability assay.

[16] = system: Daudi; assay: cells; conditions: Homo sapiens;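 note: growth inhibition of Daudi cells, read out by a viability assay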
Description: SANGER: Inhibition of human Daudi cell growth in a cell viability assay.

[17] = system: SR; assay: cells; conditions: Homo sapiens
Description: SANGER: Inhibition of human SR cell growth in a cell viability assay.

Row | Compound | IC50 [1] | IC50 [2] | IC50 [3] | IC50 [4] | IC50 [5] | IC50 [6] | IC50 [7] | IC50 [8] | IC50 [9] | IC50 [10] | IC50 [11] | IC50 [12] | IC50 [13] | IC50 [14] | IC50 [15] | IC50 [16] | IC50 [17]
1 | Cc1nc(Nc2ncc(C(=O)Nc3c(C)cccc3Cl)s2)cc(N2CCN(CCO)CC2)n1 [DASATINIB] | > 1.28 µM | 0.503 µM | > 1.28 µM | > 1.28 µM | > 1.28 µM | > 1.28 µM | > 1.28 µM | > 1.28 µM | > 1.28 µM | 0.0063 µM | > 1.28 µM | > 1.28 µM | > 1.28 µM | > 1.28 µM | > 1.28 µM | > 1.28 µM | > 1.28 µM
2 | COc1cc(C)c(Sc2cnc(NC(=O)c3ccc(CNC(C)C(C)(C)C)cc3)s2)cc1C(=O)N1CCN(C(C)=O)CC1 (centres undefined) | > 10.2 µM | > 10.2 µM | 8.91 µM | > 10.2 µM | > 10.2 µM | > 10.2 µM | > 10.2 µM | > 10.2 µM | > 10.2 µM | 6.78 µM | > 10.2 µM | > 10.2 µM | > 10.2 µM | > 10.2 µM | > 10.2 µM | > 10.2 µM | > 10.2 µM
3 | CCNc1cc(N[C@H]2CC[C@@H](O)CC2)nc(Nc2ccc3c(ccn3Cc3ccccc3)c2)n1 | > 5.12 µM | 4.56 µM | > 5.12 µM | > 5.12 µM | > 5.12 µM | > 5.12 µM | > 5.12 µM | > 5.12 µM | > 5.12 µM | > 5.12 µM | > 5.12 µM | > 5.12 µM | > 5.12 µM | > 5.12 µM | > 5.12 µM | > 5.12 µM | > 5.12 µM
4 | CCn1c(-c2nonc2N)nc2cnc(Oc3cccc(NC(=O)c4ccc(OCCN5CCOCC5)cc4)c3)cc21 [GSK-269962A] | > 2.5 µM | > 2.5 µM | > 2.5 µM | > 2.5 µM | > 2.5 µM | > 2.5 µM | > 2.5 µM | > 2.5 µM | 2.07 µM | 0.629 µM | > 2.5 µM | > 2.5 µM | > 2.5 µM | > 2.5 µM | > 2.5 µM | 2.1 µM | < 0.00977 µM
5 | Cc1ccc(NC(=O)c2cccc(C(C)(C)C#N)c2)cc1Nc1ccc2ncn(C)c(=O)c2c1 | > 4 µM | > 4 µM | 3.03 µM | > 4 µM | > 4 µM | > 4 µM | > 4 µM | > 4 µM | > 4 µM | > 4 µM | > 4 µM | > 4 µM | > 4 µM | > 4 µM | 3.3 µM | > 4 µM | > 4 µM
6 | Cc1[nH]c(/C=C2\C(=O)Nc3ccc(S(=O)(=O)Cc4c(Cl)cccc4Cl)cc32)c(C)c1C(=O)N1CCC[C@@H]1CN1CCCC1 [PHA-665752] | > 2 µM | > 2 µM | > 2 µM | > 2 µM | > 2 µM | > 2 µM | > 2 µM | > 2 µM | > 2 µM | > 2 µM | > 2 µM | > 2 µM | > 2 µM | > 2 µM | > 2 µM | > 2 µM | > 2 µM
7 | Cc1n[nH]c2ccc(-c3cncc(OC[C@@H](N)Cc4c[nH]c5ccccc45)c3)cc12 [A-443654] | 0.569 µM | 0.194 µM | 0.314 µM | > 1.02 µM | 0.54 µM | > 1.02 µM | > 1.02 µM | 0.0883 µM | 0.57 µM | 0.421 µM | 0.117 µM | 0.38 µM | > 1.02 µM | 0.584 µM | 0.181 µM | 0.355 µM | 0.184 µM
